The source of these data is US8450266B2 (Ipsen Pharma S.A.S., priority 2008, dated 2013).

Where a SMILES comes first, the peptide text is derived from it. [ ]: non-standard residue; d: D form. The star is where a group is joined. Cyclohexanecarbonyl = O=C(C1CCCCC1)*; Decanoyl = CCCCCCCCCC(=O)*; Orn = NCCC[C@H](N)C(=O)O; X1 = CCCN1C(=O)CC(*)C1=O; Hexanoyl = CCCCCC(=O)*

Series [1] is described as follows: Rat plasma half-life assay (LC-MS). It is filed as in vitro ADME. Conditions: incubated at 37° C., read-out: Rat Plasma T½ (converted). The essentials:
(§1)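 Aliquots taken from human or rat plasma at time points up to 72 h, quenched with formic acid and acetonitrile, centrifuged. Supernatant analyzed by LC-MS (ESI, positive ion, full scan) on a C8 column with a water/acetonitrile 1% formic acid gradient.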

Series [2] can be described thus: Human plasma half-life assay (LC-MS). It is filed as in vitro ADME. The note with it: incubated at 37° C., read-out: Human Plasma T½ (converted). The essentials: as §1

With `CCCN1C(=O)CC(SC[C@H](NC(=O)[C@H](CCCCN)NC(=O)[C@H](CCC(N)=O)NC(=O)[C@H](C)NC(=O)[C@H](CC(C)C)NC(=O)[C@H](CC(C)C)NC(=O)[C@H](Cc2c[nH]c3ccccc23)NC(=O)[C@H](CC(N)=O)NC(=O)[C@@H](NC(=O)[C@H](Cc2ccccc2)NC(=O)[C@H](CC(=O)O)NC(=O)[C@H](CCC(N)=O)NC(=O)[C@H](CCC(N)=O)NC(=O)[C@H](Cc2c[nH]cn2)NC(=O)[C@@H](NC(=O)[C@H](CCCCN)NC(=O)[C@H](CC(=O)O)NC(=O)[C@H](CCSC)NC(=O)[C@H](C)NC(=O)[C@@H](NC(=O)[C@H](CO)NC(=O)[C@H](Cc2ccc(O)cc2)NC(=O)[C@H](CC(=O)O)NC(=O)[C@H](CO)NC(=O)C2(NC(=O)[C@@H](N)Cc3ccccc3)CCCCC2)[C@@H](C)CC)[C@@H](C)CC)C(C)C)C(N)=O)C1=O` (stereo partly shown) [Example 34, [A6c^7, Cys(Psu)^31]hGIP(6-31)-NH2], the values for the half-life at 0.1 mg/mL in series [1] and in series [2] were 7.4 h and 11.3 h, respectively.
Taken in the same sequence, the figures for `CCCC[C@H](NC(=O)[C@H](C)NC(=O)[C@@H](NC(=O)[C@H](CO)NC(=O)[C@H](Cc1ccc(O)cc1)NC(=O)[C@H](CC(=O)O)NC(=O)[C@H](CO)NC(=O)C1(NC(=O)[C@@H](N)Cc2ccccc2)CCCC1)[C@@H](C)CC)C(=O)N[C@@H](CC(=O)O)C(=O)N[C@@H](CCCCN)C(=O)N[C@H](C(=O)N[C@@H](Cc1c[nH]cn1)C(=O)N[C@@H](CCC(N)=O)C(=O)N[C@@H](CCC(N)=O)C(=O)N[C@@H](CC(=O)O)C(=O)N[C@@H](Cc1ccccc1)C(=O)N[C@H](C(=O)N[C@@H](CC(N)=O)C(=O)N[C@@H](Cc1c[nH]c2ccccc12)C(=O)N[C@@H](CC(C)C)C(=O)N[C@@H](CC(C)C)C(=O)N[C@@H](C)C(=O)N[C@@H](CCC(N)=O)C(=O)N[C@@H](CCCCN)C(N)=O)C(C)C)[C@@H](C)CC` [Example 35, (A5c^7, Nle^14)hGIP(6-30)-NH2] (HELM PEPTIDE1{F.[O=C(C1(N[*:1])CCCC1)[*:2]].S.D.Y.S.I.A.[Nle].D.K.I.H.Q.Q.D.F.V.N.W.L.L.A.Q.K.[am]}$$$$V2.0) were 23 h and 16.5 h.
Regarding `CCCC[C@H](NC(=O)[C@H](C)NC(=O)[C@@H](NC(=O)[C@H](CO)NC(=O)[C@H](Cc1ccc(O)cc1)NC(=O)[C@H](CC(=O)O)NC(=O)[C@H](CO)NC(=O)C1(NC(=O)[C@@H](N)Cc2ccccc2)CCCCC1)[C@@H](C)CC)C(=O)N[C@@H](CC(=O)O)C(=O)N[C@@H](CCCCN)C(=O)N[C@H](C(=O)N[C@@H](Cc1c[nH]cn1)C(=O)N[C@@H](CCC(N)=O)C(=O)N[C@@H](CCC(N)=O)C(=O)N[C@@H](CC(=O)O)C(=O)N[C@@H](Cc1ccccc1)C(=O)N[C@H](C(=O)N[C@@H](CC(N)=O)C(=O)N[C@@H](Cc1c[nH]c2ccccc12)C(=O)N[C@@H](CC(C)C)C(=O)N[C@@H](CC(C)C)C(=O)N[C@@H](C)C(=O)N[C@@H](CCC(N)=O)C(=O)N[C@@H](CCCCN)C(N)=O)C(C)C)[C@@H](C)CC` [Example 36, (A6c^7, Nle^14)hGIP(6-30)-NH2] (HELM PEPTIDE1{F.[O=C(C1(N[*:1])CCCCC1)[*:2]].S.D.Y.S.I.A.[Nle].D.K.I.H.Q.Q.D.F.V.N.W.L.L.A.Q.K.[am]}$$$$V2.0), the half-life at 0.1 mg/mL is 21.6 h in series [1] and 21.9 h in series [2].
Turning to `CCCC[C@H](NC(=O)[C@H](C)NC(=O)[C@@H](NC(=O)C(C)(C)NC(=O)[C@H](Cc1ccc(O)cc1)NC(=O)[C@H](CC(=O)O)NC(=O)[C@H](CO)NC(=O)[C@@H](NC(=O)[C@@H](N)Cc1ccccc1)[C@@H](C)CC)[C@@H](C)CC)C(=O)N[C@@H](CC(=O)O)C(=O)N[C@@H](CCCCN)C(=O)N[C@H](C(=O)N[C@@H](Cc1c[nH]cn1)C(=O)N[C@@H](CCC(N)=O)C(=O)N[C@@H](CCC(N)=O)C(=O)N[C@@H](CC(=O)O)C(=O)N[C@@H](Cc1ccccc1)C(=O)N[C@H](C(=O)N[C@@H](CC(N)=O)C(=O)N[C@@H](Cc1c[nH]c2ccccc12)C(=O)N[C@@H](CC(C)C)C(=O)N[C@@H](CC(C)C)C(=O)N[C@@H](C)C(=O)N[C@@H](CCC(N)=O)C(=O)N[C@@H](CCCCN)C(N)=O)C(C)C)[C@@H](C)CC` [Example 37, (Aib^11, Nle^14)hGIP(6-30)-NH2] (HELM PEPTIDE1{F.I.S.D.Y.[Aib].I.A.[Nle].D.K.I.H.Q.Q.D.F.V.N.W.L.L.A.Q.K.[am]}$$$$V2.0), the half-life at 0.1 mg/mL is 28.5 h in series [1] and 13.5 h in series [2].
On to `CCCCCCCCCC(=O)NCCC[C@H](NC(=O)[C@H](CCCCN)NC(=O)[C@H](CCC(N)=O)NC(=O)[C@H](C)NC(=O)[C@H](CC(C)C)NC(=O)[C@H](CC(C)C)NC(=O)[C@H](Cc1c[nH]c2ccccc12)NC(=O)[C@H](CC(N)=O)NC(=O)[C@@H](NC(=O)[C@H](Cc1ccccc1)NC(=O)[C@H](CC(=O)O)NC(=O)[C@H](CCC(N)=O)NC(=O)[C@H](CCC(N)=O)NC(=O)[C@H](Cc1c[nH]cn1)NC(=O)[C@@H](NC(=O)[C@H](CCCCN)NC(=O)[C@H](CC(=O)O)NC(=O)[C@H](CCSC)NC(=O)[C@H](C)NC(=O)[C@@H](NC(=O)[C@H](CO)NC(=O)[C@H](Cc1ccc(O)cc1)NC(=O)[C@H](CC(=O)O)NC(=O)[C@@H](N)CO)[C@@H](C)CC)[C@@H](C)CC)C(C)C)C(=O)N[C@@H](CCCCN)C(=O)N[C@@H](CCCCN)C(=O)N[C@@H](CC(N)=O)C(=O)N[C@@H](CC(=O)O)C(=O)N[C@@H](Cc1c[nH]c2ccccc12)C(=O)N[C@@H](CCCCN)C(=O)N[C@@H](Cc1c[nH]cn1)C(=O)N[C@@H](CC(N)=O)C(=O)N[C@H](C(=O)N[C@H](C(=O)N[C@@H](CCC(N)=O)C(=O)O)[C@@H](C)O)[C@@H](C)CC` [Example 39, [Orn^31(N-C(O)-(CH2)8-CH3)]hGIP(8-42)-OH] (H-SDYSIAMDKIHQQDFVNWLLAQK[Orn](Decanoyl)KKNDWKHNITQ-OH), for which the half-life at 0.1 mg/ml is 13.7 h in series [1] and 31.1 h in series [2].
As for `CCCN1C(=O)CC(SC[C@H](NC(=O)[C@H](CCCCN)NC(=O)[C@H](CCC(N)=O)NC(=O)[C@H](C)NC(=O)[C@H](CC(C)C)NC(=O)[C@H](CC(C)C)NC(=O)[C@H](Cc2c[nH]c3ccccc23)NC(=O)[C@H](CC(N)=O)NC(=O)[C@@H](NC(=O)[C@H](Cc2ccccc2)NC(=O)[C@H](CC(=O)O)NC(=O)[C@H](CCC(N)=O)NC(=O)[C@H](CCC(N)=O)NC(=O)[C@H](Cc2c[nH]cn2)NC(=O)[C@@H](NC(=O)[C@H](CCCCN)NC(=O)[C@H](CC(=O)O)NC(=O)[C@H](CCSC)NC(=O)[C@H](C)NC(=O)[C@@H](NC(=O)[C@H](CO)NC(=O)[C@H](Cc2ccc(O)cc2)NC(=O)[C@H](CC(=O)O)NC(=O)[C@H](CO)NC(=O)C2CCCCC2)[C@@H](C)CC)[C@@H](C)CC)C(C)C)C(=O)N[C@@H](CCCCN)C(=O)N[C@@H](CCCCN)C(=O)N[C@@H](CC(N)=O)C(=O)N[C@@H](CC(=O)O)C(=O)N[C@@H](Cc2c[nH]c3ccccc23)C(=O)N[C@@H](CCCCN)C(=O)N[C@@H](Cc2c[nH]cn2)C(=O)N[C@@H](CC(N)=O)C(=O)N[C@H](C(=O)N[C@H](C(=O)N[C@@H](CCC(N)=O)C(=O)O)[C@@H](C)O)[C@@H](C)CC)C1=O` (stereo partly shown) [Example 40, [Chc-Ser^8, Cys(Psu)^31]hGIP(8-42)-OH] (Cyclohexanecarbonyl-SDYSIAMDKIHQQDFVNWLLAQKC(X1)KKNDWKHNITQ-OH), the half-life at 0.1 mg/mL was 6.9 h in series [1] and 4.1 h in series [2].
Taken in the same sequence, the figures for `CCCCCC(=O)N[C@@H](CO)C(=O)N[C@@H](CC(=O)O)C(=O)N[C@@H](Cc1ccc(O)cc1)C(=O)N[C@@H](CO)C(=O)N[C@H](C(=O)N[C@@H](C)C(=O)N[C@@H](CCSC)C(=O)N[C@@H](CC(=O)O)C(=O)N[C@@H](CCCCN)C(=O)N[C@H](C(=O)N[C@@H](Cc1c[nH]cn1)C(=O)N[C@@H](CCC(N)=O)C(=O)N[C@@H](CCC(N)=O)C(=O)N[C@@H](CC(=O)O)C(=O)N[C@@H](Cc1ccccc1)C(=O)N[C@H](C(=O)N[C@@H](CC(N)=O)C(=O)N[C@@H](Cc1c[nH]c2ccccc12)C(=O)N[C@@H](CC(C)C)C(=O)N[C@@H](CC(C)C)C(=O)N[C@@H](C)C(=O)N[C@@H](CCC(N)=O)C(=O)N[C@@H](CCCCN)C(=O)N[C@@H](CSC1CC(=O)N(CCC)C1=O)C(=O)N[C@@H](CCCCN)C(=O)N[C@@H](CCCCN)C(=O)N[C@@H](CC(N)=O)C(=O)N[C@@H](CC(=O)O)C(=O)N[C@@H](Cc1c[nH]c2ccccc12)C(=O)N[C@@H](CCCCN)C(=O)N[C@@H](Cc1c[nH]cn1)C(=O)N[C@@H](CC(N)=O)C(=O)N[C@H](C(=O)N[C@H](C(=O)N[C@@H](CCC(N)=O)C(=O)O)[C@@H](C)O)[C@@H](C)CC)C(C)C)[C@@H](C)CC)[C@@H](C)CC` (stereo partly shown) [Example 41, [CH3-(CH2)4-C(O)-Ser^8, Cys(Psu)^31]hGIP(8-42)-OH] (Hexanoyl-SDYSIAMDKIHQQDFVNWLLAQKC(X1)KKNDWKHNITQ-OH) were 3.7 h and 5.9 h.
Consider `CCCC[C@H](NC(=O)[C@H](C)NC(=O)[C@@H](NC(=O)[C@H](CO)NC(=O)[C@H](Cc1ccc(O)cc1)NC(=O)[C@H](CC(=O)O)NC(=O)[C@H](CO)NC(=O)[C@@H](NC(=O)[C@H](Cc1ccccc1)NC(=O)[C@@H](NC(=O)CNC(=O)[C@@H]1CCCN1C(=O)CCc1ccc(O)cc1)[C@@H](C)O)[C@@H](C)CC)[C@@H](C)CC)C(=O)N[C@@H](CC(=O)O)C(=O)N[C@@H](CCCCN)C(=O)N[C@H](C(=O)N[C@@H](Cc1c[nH]cn1)C(=O)N[C@@H](CCC(N)=O)C(=O)N[C@@H](CCC(N)=O)C(=O)N[C@@H](CC(=O)O)C(=O)N[C@@H](Cc1ccccc1)C(=O)N[C@H](C(=O)N[C@@H](CC(N)=O)C(=O)N[C@@H](Cc1c[nH]c2ccccc12)C(=O)N[C@@H](CC(C)C)C(=O)N[C@@H](CC(C)C)C(=O)N[C@@H](C)C(=O)N[C@@H](CCC(N)=O)C(=O)N[C@@H](CCCCN)C(=O)NCC(=O)N[C@@H](CCCCN)C(=O)N[C@@H](CCCCN)C(=O)N[C@@H](CC(N)=O)C(=O)N[C@@H](CC(=O)O)C(=O)N[C@@H](Cc1c[nH]c2ccccc12)C(=O)N[C@@H](CCCCN)C(=O)N[C@@H](Cc1c[nH]cn1)C(=O)N[C@@H](CC(N)=O)C(=O)N[C@H](C(=O)N[C@H](C(=O)N[C@@H](CCC(N)=O)C(=O)O)[C@@H](C)O)[C@@H](C)CC)C(C)C)[C@@H](C)CC` [Example 43, (4Hppa^2, Pro^3, Nle^14)hGIP(2-42)-OH], for which the values for the half-life at 0.1 mg/mL in series [1] and in series [2] were 2.3 h and over 53 h, respectively.
